pEC50, pIC50: −log10 of the molar value. Calls of active or inactive are those of the source.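 How the source made its calls: active means compounds giving half or more protection of infected cells from virus-caused growth loss, again on retest; inactive means the rest.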 Where a SMILES comes first, the peptide text is derived from it. [ ]: non-standard residue; d: D form. The star is where a group is joined. Phe(2-OMe) = COc1ccccc1C[CH](N)C(=O)O; Cbz = O=C(OCc1ccccc1)*; OBn = c1ccc(CO*)cc1
Tested on: CEM cells HIV-1 protection, formazan growth assay
Assay: NCI AIDS Antiviral Assay
Details: for pIC50: measured here: growth of uninfected CEM cells
Method in brief: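 CEM (human) cells, HIV-1 infected vs uninfected, 5-point dosing, formazan growth read-out. Retest threshold 50% protection.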

SMILES | pEC50 | pIC50 | outcome
CC1(C)C(O)C[C@]23CCC[C@](C)(C[C@@H](O)C12)C3 (stereo not given in full) | < 3.70 | < 3.70 | –
C=CNC(=S)N/C=C(\C#N)S(=O)(=O)c1ccc(C)cc1 | < 3.70 | < 3.70 | –
CN(C)c1nc2nonc2nc1Nc1ccccc1 | < 3.70 | < 3.70 | –
Cc1cc(NC2=NCCO2)c2c(c1C)CCCC2 | < 3.70 | 4.53 | –
CN(C)CCCNC(=O)CCNC(=O)c1cc(NC(=O)c2cc(NC(=O)c3cc(NC(=O)CCCNC(=O)c4cc(NC(=O)c5cc(NC(=O)c6nccn6C)cn5C)cn4C)cn3C)cn2C)cn1C | – | – | inactive
CC(C)c1cccc(C(C)C)c1N=C(N)C#N | < 3.71 | 4.03 | –
O=C(CC(=O)Nc1ccccc1)NNC(Sc1ccccc1)c1cc(N=Nc2ccc(Br)cc2)ccc1O (stereo not given) | – | – | inactive
Cc1ccc(Cc2nc(=S)[nH][nH]2)cc1 | < 3.70 | 3.92 | –
O=c1[nH]c(-c2ccccc2)nc2c1sc1nc3ccccc3n12 | < 4.30 | < 4.30 | –
O=C1OC(=O)C2C1CC1C(=O)OC(=O)C12 (stereo not given) | < 2.92 | < 2.92 | –
CC1(C)COC1(c1ccccc1)c1cccnc1 (stereo not given) | < 3.70 | 3.83 | –
O=C(O)C1C2CC3CC2CC31 (stereo not given) | – | – | inactive
Cc1nnc(N2C(=O)C(=Cc3ccc(Cl)cc3)N=C2c2ccc(Cl)cc2)nc1/C=C\c1ccc(N(C)C)cc1 | 4.32 | 3.96 | –
COC(=O)C(Cc1ccccc1OC)NC(=O)C(CC(=O)OCc1ccccc1)NC(=O)OCc1ccccc1 (stereo not given) (Cbz-Asp(OBn)-[Phe(2-OMe)]-OMe; configuration not given here) | < 3.70 | 4.52 | –
COc1ccc(C(=O)N2CCc3c([nH]c4ccccc34)C2C(=O)O)o1 (stereo not given) | < 4.40 | 4.76 | –
O=C1CCCSCCCC(=O)CCCSCCC1 | < 4.46 | < 4.46 | –
O=C(O)c1ccc(N=NC2Sc3nc4ccccc4n3C2=O)cc1 (stereo not given) | < 3.70 | < 3.70 | –
CCN1CCC(CNC(=O)c2ccc(N)cc2)N1CC (stereo not given) | < 3.70 | < 3.70 | –
CC1(C)OC(=O)N(c2ccccc2)C12C=Cc1cc([N+](=O)[O-])cc([N+](=O)[O-])c1O2 (stereo not given) | < 3.70 | 3.93 | –
NS(=O)(=O)c1ccc(Nc2c3ccccc3nc3c(C(=O)NCCO)cccc23)cc1 | < 3.70 | 5.28 | –
CCOc1ccc(N=O)c(O)c1 | < 3.70 | 5.40 | –
CC(=O)NC1C(OCc2ccccc2)OC(COC(=O)CCCCCCCCCCNC(=O)CCNc2ccc([N+](=O)[O-])c3[nH]c4ccc(O)cc4c(=O)c23)C(O)C1OC(C)C(=O)N[C@H](C(=O)N[C@H](CCC(=O)O)C(N)=O)C(C)C (stereo not given in full) | < 3.65 | 4.06 | –

SMILES | pEC50 | pIC50 | outcome
CSc1nc(N)c2c(n1)NCNS2(=O)=O | < 3.00 | < 3.00 | –
COc1ccc(NC(C)=O)cc1C1CCC(=O)N1 (stereo not given) | – | – | inactive
CC1(C)Oc2ccc3ccc(=O)oc3c2[C@@H](OC(=O)C23CCC(C)(C(=O)O2)C3(C)C)[C@H]1OC(=O)C12CCC(C)(C(=O)O1)C2(C)C (stereo not given in full) | 5.53 | 4.85 | –
CSc1nc(=O)c2nc(-c3cccs3)c(-c3cccs3)nc2n1C | < 4.00 | < 4.00 | –
CCOC(=O)/C(F)=C/c1ccc([N+](=O)[O-])cc1 | < 4.38 | < 4.38 | –
CC(=O)OC1CCn2nnc(CO)c21 (stereo not given) | – | – | inactive
Oc1[nH]c2ccccc2c1N=Nc1nc(-c2ccc(Br)cc2)cs1 | < 3.70 | 3.92 | –
Cc1cc(S(=O)(=O)Nc2n[nH]c(Nc3ccccc3)n2)c(SSc2cc(Cl)c(C)cc2S(=O)(=O)Nc2n[nH]c(Nc3ccccc3)n2)cc1Cl | 4.08 | 4.02 | –
O=C(Cc1ccccc1)NN1C(=O)C(Cl)C1c1ccccc1O (stereo not given) | < 4.11 | 4.61 | –
COc1ccc2nc3c([N+](=O)[O-])ccc4c3c(c2c1)N=CN4CCCN(C)C | 6.85 | 6.33 | –
N/N=C(/CS(=O)(=O)c1ccc(Cl)cc1)c1ccccc1 | < 4.00 | < 4.00 | –
O=C(NC1CCCCC1)/C(=C\c1ccc(/C=C(/NC(=O)c2ccccc2)C(=O)NC2CCCCC2)cc1)NC(=O)c1ccccc1 | < 3.70 | 3.92 | –
CCCCCCn1c(SC)nc(COC(=O)NC)c1COC(=O)NC | < 3.70 | 4.45 | –
Cc1ccc(S(=O)(=O)N/N=C2/CC3CCC2C3)cc1 (stereo not given) | < 3.70 | < 3.70 | –
O=C1Nc2ccccc2N2C(=O)CCC12 (stereo not given) | < 2.91 | 3.21 | –
CCSCCCCCCCCCCCC(=O)O | 5.03 | 4.49 | –
S=C(N/N=C(/c1ccccc1)c1ccccn1)N1CCCCC1 | < 5.70 | 7.41 | –
O=[N+]([O-])c1cccc(-c2ncnc(-c3cccc([N+](=O)[O-])c3)n2)c1 | < 4.00 | < 4.00 | –
OCC1NC(CO)C(O)C1O (stereo not given) | – | – | inactive
CN(C)CCSC(=Nc1ccccc1)N1CCCCC1 | < 3.91 | 4.68 | –
CNC(=O)N(CCCC(NC(C)=O)C(=O)NCc1ccccc1)Cc1ccccc1 (stereo not given) | < 3.22 | < 3.22 | –

From PubChem BioAssay AID179 (DTP/NCI, 2004)
